Test results taken from ChEMBL document CHEMBL4130634, “Discovery of Reversible DNA Methyltransferase and Lysine Methyltransferase G9a Inhibitors with Antitumoral in Vivo Efficacy” (J Med Chem, 2018).

How the values were obtained:
[1] = Metabolic stability in human liver microsomes assessed as parent compound remaining at 1 uM preincubated for 10 mins followed by NADP addition after 20 mins by LC-MS/MS analysis; type: ADME, microsome
THLE-2 = experiment: Growth inhibition of human THLE2 cells after 72 hrs by MTS assay; type: cell-based; conditions: thle-2, 72 h
[2] = Half life in human liver microsomes at 1 uM preincubated for 10 mins followed by NADP addition after 20 mins by LC-MS/MS analysis; type: ADME, microsome
[3] = AUC (0 to 24 hrs) in RARG2-/-gammac-/- Balb/c mouse at […], iv administered as single dose by LC-MS/MS analysis; type: ADME, organism-based; set-up: time < 24 hr, dose 2.5 mg/kg, route intravenous; conditions: in vivo
MV4-11 [4] = experiment: Antitumor activity against human MV4-11 cells xenografted in RARG2-/-gammac-/- Balb/c mouse assessed as tumor growth inhibition at […], iv for 21 consecutive days starting from day 1 post tumor inoculation measured on day 23 relative to control; type: functional; conditions: MV4-11, iv, read-out: TGI
[5] = Growth inhibition of human LAL-CUN-2 cells after 48 hrs by MTS assay; type: functional
MV4-11 [6] = experiment: Growth inhibition of human MV4-11 cells after 48 hrs by MTS assay; type: functional; conditions: MV4-11, 48 h
[7] = Metabolic stability in mouse liver microsomes assessed as parent compound remaining at 1 uM preincubated for 10 mins followed by NADP addition after 20 mins by LC-MS/MS analysis; type: ADME, microsome; conditions: read-out: Stability
[8] = Half life in mouse liver microsomes at 1 uM preincubated for 10 mins followed by NADP addition after 20 mins by LC-MS/MS analysis; type: ADME, microsome
[9] = target: T1, Histone-lysine N-methyltransferase EHMT2 (Homo sapiens, UniProt Q96KQ7); experiment: Inhibition of human G9a using biotinylated-H3K9 peptide as substrate after 1 hr in presence of SAM by TR-FRET assay
T1 sequence (Q96KQ7 whole entry): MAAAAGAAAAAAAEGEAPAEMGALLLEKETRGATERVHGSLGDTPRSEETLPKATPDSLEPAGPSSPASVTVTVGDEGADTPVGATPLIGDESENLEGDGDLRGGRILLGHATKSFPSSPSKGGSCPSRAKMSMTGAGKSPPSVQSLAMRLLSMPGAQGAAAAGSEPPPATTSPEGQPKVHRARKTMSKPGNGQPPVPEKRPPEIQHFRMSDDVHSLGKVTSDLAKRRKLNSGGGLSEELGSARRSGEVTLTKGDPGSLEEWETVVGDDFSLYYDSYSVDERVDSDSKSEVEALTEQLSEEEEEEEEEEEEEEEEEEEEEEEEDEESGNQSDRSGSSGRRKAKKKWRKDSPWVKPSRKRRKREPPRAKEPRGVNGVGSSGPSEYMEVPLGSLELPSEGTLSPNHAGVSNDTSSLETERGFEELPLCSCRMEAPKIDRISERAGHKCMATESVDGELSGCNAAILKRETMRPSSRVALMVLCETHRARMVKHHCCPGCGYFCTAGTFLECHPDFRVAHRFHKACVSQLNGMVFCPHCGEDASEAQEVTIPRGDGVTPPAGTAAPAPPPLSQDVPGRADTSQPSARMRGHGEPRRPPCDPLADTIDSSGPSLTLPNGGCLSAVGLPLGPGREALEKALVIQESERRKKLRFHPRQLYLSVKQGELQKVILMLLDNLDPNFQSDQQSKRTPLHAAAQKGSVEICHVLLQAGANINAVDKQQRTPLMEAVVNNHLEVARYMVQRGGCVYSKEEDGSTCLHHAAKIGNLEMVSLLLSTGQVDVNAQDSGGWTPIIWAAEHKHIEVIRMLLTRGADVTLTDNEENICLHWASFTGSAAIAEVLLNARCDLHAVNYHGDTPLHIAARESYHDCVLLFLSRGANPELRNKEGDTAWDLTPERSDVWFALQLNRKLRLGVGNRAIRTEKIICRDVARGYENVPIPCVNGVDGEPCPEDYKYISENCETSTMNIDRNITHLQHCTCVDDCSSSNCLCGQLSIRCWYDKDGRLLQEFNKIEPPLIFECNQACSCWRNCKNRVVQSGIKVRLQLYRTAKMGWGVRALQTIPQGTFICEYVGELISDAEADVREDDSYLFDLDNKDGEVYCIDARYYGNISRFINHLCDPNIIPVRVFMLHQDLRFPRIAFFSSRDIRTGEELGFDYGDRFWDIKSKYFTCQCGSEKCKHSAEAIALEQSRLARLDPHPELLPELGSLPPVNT

CYP2D6 = CYP2D6 (Homo sapiens, UniProt P10635); experiment: Inhibition of CYP2D6 in human liver microsomes at 10 uM after 10 mins in presence of NADPH by LC-MS/MS analysis relative to control; type: ADME
[10] = target: DNA (cytosine-5)-methyltransferase 1 (Homo sapiens, UniProt P26358); experiment: Inhibition of human DNMT1 using polydeoxyinosine polydeoxycytosine DNA as substrate after 15 mins in presence of SAM by TR-FRET assay
[11] = Growth inhibition of human CEMO1 cells after 48 hrs by MTS assay; type: functional
OCI-Ly3 = experiment: Growth inhibition of human OCI-LY3 cells after 48 hrs by MTS assay; type: functional; conditions: OCI-Ly3, 48 h
CYP1A2 = target: T2, CYP1A2 (Homo sapiens, UniProt P05177); experiment: Inhibition of CYP1A2 in human liver microsomes at 10 uM after 10 mins in presence of NADPH by LC-MS/MS analysis relative to control; type: ADME
T2 sequence (P05177 whole entry): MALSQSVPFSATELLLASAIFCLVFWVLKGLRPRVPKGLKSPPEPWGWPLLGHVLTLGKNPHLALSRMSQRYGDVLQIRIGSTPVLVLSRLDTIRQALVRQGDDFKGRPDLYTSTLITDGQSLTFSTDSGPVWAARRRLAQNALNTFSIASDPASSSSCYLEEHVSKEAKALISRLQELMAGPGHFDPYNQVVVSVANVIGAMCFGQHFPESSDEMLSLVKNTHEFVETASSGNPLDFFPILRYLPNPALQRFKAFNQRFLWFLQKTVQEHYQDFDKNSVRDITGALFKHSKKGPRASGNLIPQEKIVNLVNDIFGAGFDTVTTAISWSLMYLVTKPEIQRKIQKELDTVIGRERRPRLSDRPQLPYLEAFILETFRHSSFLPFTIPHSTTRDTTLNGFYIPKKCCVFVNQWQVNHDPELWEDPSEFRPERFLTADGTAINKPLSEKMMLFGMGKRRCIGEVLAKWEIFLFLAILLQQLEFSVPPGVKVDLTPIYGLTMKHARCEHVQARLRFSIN

[12] = Permeability of the compound at 50 uM after 18 hrs by PAMPA; type: ADME; conditions: read-out: permeability
OCI-Ly10 = experiment: Growth inhibition of human OCI-LY10 cells after 48 hrs by MTS assay; type: functional; conditions: OCI-Ly10, 48 h
CYP2C9 = CYP2C9 (Homo sapiens, UniProt P11712); experiment: Inhibition of CYP2C9 in human liver microsomes at 10 uM after 10 mins in presence of NADPH by LC-MS/MS analysis relative to control; type: ADME
CYP2C19 = CYP2C19 (Homo sapiens, UniProt P33261); experiment: Inhibition of CYP2C19 in human liver microsomes at 10 uM after 10 mins in presence of NADPH by LC-MS/MS analysis relative to control; type: ADME
CYP3A4 = CYP3A4 (Homo sapiens, UniProt P08684); experiment: Inhibition of CYP3A4 in human liver microsomes at 10 uM after 10 mins in presence of NADPH by LC-MS/MS analysis relative to control; type: ADME
[13] = Growth inhibition of human LAL-CUN-2 cells at 10 uM after 48 hrs by MTS assay relative to control; type: functional; conditions: read-out: GI

Sequence of DNA (cytosine-5)-methyltransferase 1 (P26358 whole entry): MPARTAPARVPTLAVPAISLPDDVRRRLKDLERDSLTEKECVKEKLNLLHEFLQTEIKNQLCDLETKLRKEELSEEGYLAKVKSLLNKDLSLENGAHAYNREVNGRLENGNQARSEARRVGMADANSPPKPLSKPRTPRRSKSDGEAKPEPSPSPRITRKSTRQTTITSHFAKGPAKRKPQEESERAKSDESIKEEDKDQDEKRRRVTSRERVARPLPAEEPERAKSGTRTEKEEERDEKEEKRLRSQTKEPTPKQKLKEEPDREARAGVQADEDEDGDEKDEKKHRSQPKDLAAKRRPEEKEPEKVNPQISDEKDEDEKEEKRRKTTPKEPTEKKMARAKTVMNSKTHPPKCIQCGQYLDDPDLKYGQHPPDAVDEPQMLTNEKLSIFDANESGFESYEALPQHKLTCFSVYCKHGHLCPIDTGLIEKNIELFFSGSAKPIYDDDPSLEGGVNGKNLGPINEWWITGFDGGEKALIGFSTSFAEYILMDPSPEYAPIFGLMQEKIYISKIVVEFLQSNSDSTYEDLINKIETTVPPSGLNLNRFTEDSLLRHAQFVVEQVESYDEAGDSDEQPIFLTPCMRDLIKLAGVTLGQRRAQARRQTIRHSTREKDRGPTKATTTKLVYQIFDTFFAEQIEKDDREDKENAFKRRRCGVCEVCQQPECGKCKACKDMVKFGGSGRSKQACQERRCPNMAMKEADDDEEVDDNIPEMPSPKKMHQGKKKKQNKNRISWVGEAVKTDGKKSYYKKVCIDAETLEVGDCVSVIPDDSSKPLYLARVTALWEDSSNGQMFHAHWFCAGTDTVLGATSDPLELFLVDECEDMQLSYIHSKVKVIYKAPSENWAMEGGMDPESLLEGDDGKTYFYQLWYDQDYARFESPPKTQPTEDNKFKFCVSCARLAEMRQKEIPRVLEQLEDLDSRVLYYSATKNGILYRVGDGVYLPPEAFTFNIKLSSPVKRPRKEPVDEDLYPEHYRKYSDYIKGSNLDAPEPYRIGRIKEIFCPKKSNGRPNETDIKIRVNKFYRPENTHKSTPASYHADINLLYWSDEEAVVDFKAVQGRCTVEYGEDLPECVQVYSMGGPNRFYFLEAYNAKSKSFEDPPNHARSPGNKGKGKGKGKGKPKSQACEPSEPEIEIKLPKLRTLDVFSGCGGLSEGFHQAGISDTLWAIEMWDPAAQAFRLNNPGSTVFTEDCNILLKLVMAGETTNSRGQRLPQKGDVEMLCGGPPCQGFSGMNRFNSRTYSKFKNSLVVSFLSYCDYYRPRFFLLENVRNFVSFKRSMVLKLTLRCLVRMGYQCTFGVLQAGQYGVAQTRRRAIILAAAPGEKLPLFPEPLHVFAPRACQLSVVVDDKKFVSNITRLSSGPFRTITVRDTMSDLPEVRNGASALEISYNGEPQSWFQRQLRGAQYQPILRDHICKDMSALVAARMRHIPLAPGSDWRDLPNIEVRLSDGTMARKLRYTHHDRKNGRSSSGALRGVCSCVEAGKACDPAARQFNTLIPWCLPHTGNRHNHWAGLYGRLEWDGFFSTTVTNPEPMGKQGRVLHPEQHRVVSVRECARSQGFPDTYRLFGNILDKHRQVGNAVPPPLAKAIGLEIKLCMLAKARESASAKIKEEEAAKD
Sequence of CYP2C19 (P33261 whole entry): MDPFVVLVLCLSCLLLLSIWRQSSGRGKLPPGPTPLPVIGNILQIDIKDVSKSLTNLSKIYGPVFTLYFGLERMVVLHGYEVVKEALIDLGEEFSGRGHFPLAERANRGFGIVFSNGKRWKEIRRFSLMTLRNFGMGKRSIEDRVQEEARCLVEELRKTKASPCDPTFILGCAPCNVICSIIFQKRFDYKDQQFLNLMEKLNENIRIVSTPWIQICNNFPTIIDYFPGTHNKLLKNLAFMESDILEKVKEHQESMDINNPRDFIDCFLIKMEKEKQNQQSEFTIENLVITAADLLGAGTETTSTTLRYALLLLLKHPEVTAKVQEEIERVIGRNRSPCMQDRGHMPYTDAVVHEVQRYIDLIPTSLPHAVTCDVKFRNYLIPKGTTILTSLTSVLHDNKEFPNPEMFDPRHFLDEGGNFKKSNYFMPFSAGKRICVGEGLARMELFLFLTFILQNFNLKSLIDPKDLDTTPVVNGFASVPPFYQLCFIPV
Sequence of CYP2C9 (P11712 whole entry): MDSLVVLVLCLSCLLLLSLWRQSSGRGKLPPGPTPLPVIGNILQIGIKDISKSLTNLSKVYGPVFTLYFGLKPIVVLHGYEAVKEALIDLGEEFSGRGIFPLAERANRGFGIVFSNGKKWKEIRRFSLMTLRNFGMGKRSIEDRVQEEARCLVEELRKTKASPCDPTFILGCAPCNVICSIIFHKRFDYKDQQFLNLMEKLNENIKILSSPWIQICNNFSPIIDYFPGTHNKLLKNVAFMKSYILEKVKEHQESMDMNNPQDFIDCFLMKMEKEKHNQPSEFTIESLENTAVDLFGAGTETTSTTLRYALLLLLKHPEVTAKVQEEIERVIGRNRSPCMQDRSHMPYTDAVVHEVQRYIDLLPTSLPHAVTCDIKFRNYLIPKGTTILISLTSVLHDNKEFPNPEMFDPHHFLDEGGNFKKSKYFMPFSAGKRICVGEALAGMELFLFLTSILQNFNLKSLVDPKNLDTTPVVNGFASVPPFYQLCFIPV
Sequence of CYP2D6 (P10635 whole entry): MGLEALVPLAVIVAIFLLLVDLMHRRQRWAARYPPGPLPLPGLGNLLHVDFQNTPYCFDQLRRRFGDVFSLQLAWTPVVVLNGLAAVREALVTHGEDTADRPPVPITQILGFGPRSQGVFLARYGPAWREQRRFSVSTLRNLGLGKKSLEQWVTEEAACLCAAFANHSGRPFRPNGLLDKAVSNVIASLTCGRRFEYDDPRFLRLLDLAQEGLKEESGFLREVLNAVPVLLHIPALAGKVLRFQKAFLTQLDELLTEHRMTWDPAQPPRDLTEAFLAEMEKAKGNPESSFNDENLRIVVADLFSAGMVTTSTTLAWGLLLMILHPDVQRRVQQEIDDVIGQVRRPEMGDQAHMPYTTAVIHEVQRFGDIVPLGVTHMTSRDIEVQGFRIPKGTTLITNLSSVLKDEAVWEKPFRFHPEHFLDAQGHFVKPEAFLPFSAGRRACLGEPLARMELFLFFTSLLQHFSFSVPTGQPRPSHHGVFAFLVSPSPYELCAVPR
Sequence of CYP3A4 (P08684 whole entry): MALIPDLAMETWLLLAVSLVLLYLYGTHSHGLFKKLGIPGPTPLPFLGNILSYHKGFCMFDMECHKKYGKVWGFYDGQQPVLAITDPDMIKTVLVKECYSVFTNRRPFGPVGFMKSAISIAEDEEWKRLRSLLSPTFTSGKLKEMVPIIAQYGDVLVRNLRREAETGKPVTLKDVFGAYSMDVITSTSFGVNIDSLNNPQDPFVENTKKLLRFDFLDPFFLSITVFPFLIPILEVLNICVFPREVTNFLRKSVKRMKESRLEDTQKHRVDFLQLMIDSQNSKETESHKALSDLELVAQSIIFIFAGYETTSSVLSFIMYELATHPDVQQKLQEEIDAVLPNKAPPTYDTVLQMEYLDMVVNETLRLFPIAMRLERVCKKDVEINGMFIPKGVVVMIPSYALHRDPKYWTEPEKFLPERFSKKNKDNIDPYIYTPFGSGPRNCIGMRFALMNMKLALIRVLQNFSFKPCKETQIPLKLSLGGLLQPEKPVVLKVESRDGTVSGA

| Structure (SMILES) | LC50 (THLE-2) [nM] | GI50 (MV4-11 [6]) [nM] | remaining at 20 min, 1 µM [7] [%] | half-life at 1 µM [8] [min] | IC50 [9] [nM] | IC50 [10] [nM] | GI50 [11] [nM] | GI50 (OCI-Ly3) [nM] | Papp at 18 h, 50 µM [12] [×10⁻⁶ cm/s] | GI50 (OCI-Ly10) [nM] | further results |
| --- | --- | --- | --- | --- | --- | --- | --- | --- | --- | --- | --- |
| COc1cc2c(NC3CCN(C)CC3)cc(-c3ccc(C)o3)nc2cc1OCCCN1CCCC1 | 1780 | 269 | 70.9 | 36 | – | – | – | – | – | – | remaining at 20 min, 1 µM ([1]; liver microsomes, read-out: Stability): 99.7%; half-life at 1 µM ([2]; liver microsomes): > 144 min; AUC(0-t) at 24 h [3]: 1.49 µM·h; inhibition in vivo at […] (MV4-11 [4]): 70%; GI50 [5]: 664 nM |
| COc1cc2c(NC3CCN(C(C)C)CC3)cc(-c3ccc(C)o3)nc2cc1OCCCN1CCCC1 | 1340 | 649 | 36.9 | 18 | 3 | 231 | 247 | 898 | 2.58 | 792 | Stability ([1]; microsomes, 20 min, 1 µM): 64%; inhibition at 10 min, 10 µM (CYP2D6): 11.4%; t1/2 ([2]; microsomes, 20 min, 1 µM): 102 min; inhibition at 10 min, 10 µM (CYP1A2): 4.3%; inhibition at 10 min, 10 µM (CYP2C9): 6.1%; inhibition at 10 min, 10 µM (CYP2C19): 0%; inhibition at 10 min, 10 µM (CYP3A4): 0% |
| COc1cc2c(NC3CCN(C)CC3)cc(-c3ccoc3)nc2cc1OCCCN1CCCC1 | 22300 | – | – | – | 7 | 978 | 4560 | > 4000 | 0.22 | 386 | inhibition of growth at 10 µM [13]: 54% |
